Experimental data as given in the supplement of paper PMC12137928.
Where a name gives a salt, the structure may show the parent alone.

Test system: HCT116
Details: 72 h
Summary of the method: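 For IC50 and maximal efficacy, four-parameter Hill fits were used. Input values were CellTiter-Glo luminescence from HCT116 cells seeded at 250 per well in 1536-well plates, normalized to vehicle (0%) and positive control (-100%). Pattern correction followed normalization.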

SMILES	IC50 cell viability (ICRF193 0 nM) [µM]	IC50 cell viability (ICRF193 200 nM) [µM]
COc1ccc2c(=O)c(C)c(-c3ccccc3)oc2c1CN(C)C [Dimefline hydrochloride]	> 45.8	> 45.8
Cc1ccc2c(c1)[C@]13CCCC[C@@H]1[C@H](C2)N(C)CC3 [Dimemorfan phosphate]	> 45.8	> 45.8
CCCCc1cc2ccccc2c(OCCN(C)C)n1 [Dimethisoquin hydrochloride]	> 45.8	> 45.8
CC#C[C@]1(O)CC[C@H]2[C@@H]3C[C@H](C)C4=CC(=O)CC[C@]4(C)[C@H]3CC[C@@]21C [Dimethisteron]	> 45.8	> 45.8
COC(=O)/C=C\C(=O)OC [Dimethyl maleate]	> 45.8	> 45.8
C[N+](C)(CCOc1ccccc1)Cc1cccs1 [Dimethyl(2-phenoxyethyl)-2-thenylammonium iodide]	> 45.8	> 45.8
CCCCN(CCN(CCCC)C(=O)N1CCOCC1)C(=O)N1CCOCC1 [Dimorpholamine]	> 45.8	> 45.8
O=C(Nc1ccccc1)OCC(CN1CCCCC1)OC(=O)Nc1ccccc1 (stereo not drawn) [Diperodon hydrochloride]	> 45.8	> 45.8
C[N+]1(C)CCC(=C(c2ccccc2)c2ccccc2)CC1 [Diphemanil methylsulfate]	> 45.8	> 45.8
OC(CCCN1CCCCC1)(c1ccccc1)c1ccccc1 [Diphenidol]	> 45.8	> 45.8
CN1CCC(OC(c2ccccc2)c2ccccc2)CC1 [Diphenylpyraline hydrochloride]	> 45.8	> 45.8
CNCC(O)c1ccc(OC(=O)C(C)(C)C)c(OC(=O)C(C)(C)C)c1 (stereo not drawn) [Dipivefrin hydrochloride]	> 45.8	> 45.8
CC[N+](CC)(CC)CCOC(=O)C(C1CCCC1)C1CCCC1 [Diponium bromide]	> 45.8	> 45.8
OCCN(CCO)c1nc(N2CCCCC2)c2nc(N(CCO)CCO)nc(N3CCCCC3)c2n1 [Dipyridamole]	> 45.8	> 45.8
Cc1c(N(C)CS(=O)(=O)O)c(=O)n(-c2ccccc2)n1C [Dipyrone]	> 45.8	> 45.8
CC[C@H]1OC(=O)[C@H](C)[C@@H](O[C@H]2C[C@@](C)(OC)[C@@H](O)[C@H](C)O2)[C@H](C)[C@@H](O[C@@H]2O[C@H](C)C[C@H](N(C)C)[C@H]2O)[C@](C)(O)C[C@@H](C)[C@@H]2N[C@@H](COCCOC)O[C@H]([C@H]2C)[C@]1(C)O [Dirithromycin]	> 45.8	> 45.8
O=C([O-])CC(O)C(=O)[O-].[Na+].[Na+] (stereo not drawn) [Disodium 2-hydroxybutanedioate]	> 45.8	> 45.8
CC(C)N(CCC(C(N)=O)(c1ccccc1)c1ccccn1)C(C)C (stereo not drawn) [Disopyramide]	> 45.8	> 45.8
CN(CCCCCCN(C)C(=O)Oc1ccc[n+](C)c1)C(=O)Oc1ccc[n+](C)c1 [Distigmine Bromide]	> 45.8	> 45.8
CCN(CC)C(=S)SSC(=S)N(CC)CC [Disulfiram]	> 45.8	> 45.8

SMILES	IC50 cell viability (ICRF193 0 nM) [µM]	IC50 cell viability (ICRF193 200 nM) [µM]
O=S(=O)(O)c1cc(O)ccc1O [Dobesilate Calcium]	> 45.8	> 45.8
CCOC(=O)Oc1ccc(CCNC(=O)[C@H](CCSC)NC(C)=O)cc1OC(=O)OCC [Docarpamine]	> 45.8	> 45.8
CCCCCCCCCCCCCCCCCCCCCCO [Docosanol]	> 45.8	> 45.8
CN(CCOc1ccc(NS(C)(=O)=O)cc1)CCc1ccc(NS(C)(=O)=O)cc1 [Dofetilide]	> 45.8	> 45.8
O=C(O[C@@H]1C[C@@H]2C[C@H]3C[C@H](C1)N2CC3=O)c1c[nH]c2ccccc12 [Dolasetron mesylate hydrate]	> 45.8	> 45.8
O=c1[nH]c2ccccc2n1CCCN1CCC(n2c(=O)[nH]c3cc(Cl)ccc32)CC1 [Domperidone]	> 45.8	> 45.8
COc1cc2c(cc1OC)C(=O)C(CC1CCN(Cc3ccccc3)CC1)C2 (stereo not drawn) [Donepezil hydrochloride]	> 45.8	> 45.8
NCCc1ccc(O)c(O)c1 [Dopamine hydrochloride]	> 45.8	> 45.8
O=[N+]([O-])c1nccn1COC(CO)C(O)CO (stereo not drawn) [Doranidazole]	> 45.8	> 45.8
C[C@@H](O)[C@H]1C(=O)N2C(C(=O)O)=C(S[C@@H]3CN[C@H](CNS(N)(=O)=O)C3)[C@H](C)[C@H]12 [Doripenem]	> 45.8	> 45.8
CCN[C@H]1C[C@H](C)S(=O)(=O)c2sc(S(N)(=O)=O)cc21 [Dorzolamide hydrochloride]	> 45.8	> 45.8
CCN1CC(CCN2CCOCC2)C(c2ccccc2)(c2ccccc2)C1=O (stereo not drawn) [Doxapram hydrochloride]	> 45.8	> 45.8
CN(C)CCC=C1c2ccccc2COc2ccccc21 [Doxepin hydrochloride]	> 45.8	> 45.8
C[C@H]1O[C@@H](n2cc(F)c(=O)[nH]c2=O)[C@H](O)[C@@H]1O [Doxifluridine]	> 45.8	> 45.8
CN(C)CCOC(C)(c1ccccc1)c1ccccn1 (stereo not drawn) [Doxylamine succinate]	> 45.8	> 45.8
O=C(CCCN1CC=C(n2c(=O)[nH]c3ccccc32)CC1)c1ccc(F)cc1 [Droperidol]	> 45.8	> 45.8
CCC(=O)O[C@H]1CC[C@H]2[C@@H]3CC[C@H]4CC(=O)[C@H](C)C[C@]4(C)[C@H]3CC[C@]12C [Drostanolone propionate]	> 45.8	> 45.8
N[C@H](C(=O)O)[C@H](O)c1ccc(O)c(O)c1 [Droxidopa]	> 45.8	> 45.8
C[C@]12C=CC(=O)N[C@@H]1CC[C@@H]1[C@@H]2CC[C@]2(C)[C@@H](C(=O)Nc3cc(C(F)(F)F)ccc3C(F)(F)F)CC[C@@H]12 [Dutasteride]	> 45.8	> 45.8
CCCCOc1ccc(C(=O)CCN2CCCCC2)cc1 [Dyclonine hydrochloride]	> 45.8	> 45.8

SMILES	IC50 cell viability (ICRF193 0 nM) [µM]	IC50 cell viability (ICRF193 200 nM) [µM]
Cn1c(=O)c2c(ncn2CC(O)CO)n(C)c1=O (stereo not drawn) [Dyphylline]	> 45.8	> 45.8
O=c1c2c(c1=O)N(CCP(=O)(O)O)CCCN2 [EAA-090]	> 45.8	> 45.8
CCOC(=O)COc1ccc2c(=O)cc(-c3ccccc3)oc2c1 [EFLOXATE]	> 45.8	> 45.8
CC1(C)[C@@H](O)CC[C@]2(C)[C@H]3C(=O)C=C4[C@@H]5C[C@@](C)(C(=O)O)CC[C@]5(C)CC[C@@]4(C)[C@]3(C)CC[C@@H]12 [ENOXOLONE]	> 45.8	> 45.8
Cc1ccc(/C=C2/C(=O)C3(C)CCC2C3(C)C)cc1 (stereo not drawn) [ENZACAMENE]	> 45.8	> 45.8
CCOC(=O)CCC(=O)O[C@H]1[C@H](O[C@@H]2[C@@H](C)[C@H](O[C@H]3C[C@@](C)(OC)[C@@H](O)[C@H](C)O3)[C@@H](C)C(=O)O[C@H](CC)[C@@](C)(O)[C@H](O)[C@@H](C)C(=O)[C@H](C)C[C@@]2(C)O)O[C@H](C)C[C@@H]1N(C)C [ERYTHROMYCIN ETHYLSUCCINATE]	> 45.8	> 45.8
C[C@]12CC[C@@H]3c4ccc(OC(=O)c5ccccc5)cc4CC[C@H]3[C@@H]1CC[C@@H]2O [ESTRADIOL BENZOATE]	> 45.8	> 45.8
C[C@]12CC[C@@H]3c4ccc(OS(=O)(=O)O)cc4CC[C@H]3[C@@H]1CCC2=O [ESTROPIPATE]	> 45.8	> 45.8
CC1=NN(c2ccccc2)C(=O)C1 [Edaravone]	> 45.8	> 45.8
CN1CCc2nc(C(=O)N[C@@H]3C[C@@H](C(=O)N(C)C)CC[C@@H]3NC(=O)C(=O)Nc3ccc(Cl)cn3)sc2C1 [Edoxaban tosylate monohydrate]	> 45.8	> 45.8
CC[N+](C)(C)c1cccc(O)c1 [Edrophonium chloride]	> 45.8	> 45.8
C=C1CCN([C@H](C)[C@](O)(Cn2cncn2)c2ccc(F)cc2F)CC1 [Efinaconazole]	> 45.8	> 45.8
NCCCC(N)(C(=O)O)C(F)F (stereo not drawn) [Eflornithine Hydrochloride]	> 45.8	> 45.8
CC/C=C\C/C=C\C/C=C\C/C=C\C/C=C\CCCC(=O)O [Eicosapentaenoic Acid]	> 45.8	> 45.8
CC/C=C\C/C=C\C/C=C\C/C=C\C/C=C\CCCC(=O)OCC [Eicosapentaenoic acid ethyl ester]	> 45.8	> 45.8
CCCCCCCC/C=C/CCCCCCCC(=O)O [Elaidic Acid]	> 45.8	> 45.8
COC(=O)N[C@H](C(=O)N1CCC[C@H]1c1nc(-c2ccc3c(c2)O[C@@H](c2ccccc2)n2c-3cc3cc(-c4c[nH]c([C@@H]5CCCN5C(=O)[C@@H](NC(=O)OC)C(C)C)n4)ccc32)c[nH]1)C(C)C [Elbasvir]	> 45.8	> 45.8
C=C1/C(=C\C=C2/CCC[C@]3(C)[C@@H]([C@H](C)CCCC(C)(C)O)CC[C@@H]23)C[C@@H](O)[C@@H](OCCCO)[C@@H]1O [Eldecalcitol]	> 45.8	> 45.8
CN1CCC[C@@H]1Cc1c[nH]c2ccc(CCS(=O)(=O)c3ccccc3)cc12 [Eletriptan]	> 45.8	> 45.8
